Source: ChEMBL document CHEMBL3352629, “Hydroxamic acid based histone deacetylase inhibitors with confirmed activity against the malaria parasite” (Bioorg Med Chem Lett, 2015)
The source made the active and inactive calls. The calls are words filed in the database; no cut-off is given here. Square brackets hold non-standard residues; d marks the D form. Peptide text beside a SMILES is read from it. * marks the point of attachment. Asu = N[C@@H](CCCCCC(=O)O)C(=O)O; pGlu = O=C1CC[C@@H](C(=O)O)N1; NHPh = c1ccc(N*)cc1; NHOH = ON*

Legend:
Trypanosoma cruzi = experiment: Antiprotozoan activity against Trypanosoma cruzi Tulahuen C4 amastigotes; format: functional, organism-based
Histone deacetylase 11 = molecular target: T1, Histone deacetylase 11 (Homo sapiens, UniProt Q96DB2); experiment: Inhibition of human HDAC11 using RHKK(Ac) as substrate by fluorimetric analysis
T1 sequence (Q96DB2 whole entry): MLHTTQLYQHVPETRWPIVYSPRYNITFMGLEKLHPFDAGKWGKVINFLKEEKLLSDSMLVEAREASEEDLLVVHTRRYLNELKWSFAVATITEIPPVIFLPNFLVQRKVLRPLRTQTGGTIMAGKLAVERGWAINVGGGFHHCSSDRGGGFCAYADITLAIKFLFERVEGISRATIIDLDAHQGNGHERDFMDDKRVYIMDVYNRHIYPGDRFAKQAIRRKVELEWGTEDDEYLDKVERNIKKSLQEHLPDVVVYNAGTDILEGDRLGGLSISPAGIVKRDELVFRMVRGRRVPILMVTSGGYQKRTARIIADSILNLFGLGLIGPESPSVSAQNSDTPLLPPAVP

Plasmodium falciparum [1] = experiment: Antiprotozoan activity against Plasmodium falciparum infected in mouse assessed as reduction in parasite growth at 50 mg/kg, ip QD for 4 days; format: functional; details: 96 h, route intraperitoneal
L6 = experiment: Cytotoxicity against rat L6 cells; format: ADME, cell-based
[2] = tested on: Trypanosoma brucei rhodesiense; experiment: Antiprotozoan activity against Trypanosoma brucei rhodesiense STIB 900 trypomastigotes; format: functional, organism-based
Giardia intestinalis = experiment: Antiprotozoan activity against Giardia lamblia G1; format: functional, organism-based; details: Giardia duodenalis
Plasmodium falciparum [3] = experiment: Antiprotozoan activity against Plasmodium falciparum NF54 IEF forms; format: functional, organism-based
Leishmania donovani [4] = experiment: Antiprotozoan activity against Leishmania donovani MHOM- ET-67/L82 amastigotes; format: functional, organism-based
Leishmania donovani [5] = experiment: Antiprotozoan activity against Leishmania donovani MHOM- ET-67/L82 amastigotes at 1 uM; format: functional, organism-based
Histone deacetylase 1 = Histone deacetylase 1 (Homo sapiens, UniProt Q13547); experiment: Inhibition of human HDAC1 using RHKK(Ac) as substrate by fluorimetric analysis
Histone deacetylase 3 = Histone deacetylase 3 (Homo sapiens, UniProt O15379); experiment: Inhibition of human HDAC3 using RHKK(Ac) as substrate by fluorimetric analysis
[6] = molecular target: T2, Protein deacetylase HDAC6 (Homo sapiens, UniProt Q9UBN7); experiment: Inhibition of human HDAC6 using RHKK(Ac) as substrate by fluorimetric analysis
T2 sequence (Q9UBN7 whole entry): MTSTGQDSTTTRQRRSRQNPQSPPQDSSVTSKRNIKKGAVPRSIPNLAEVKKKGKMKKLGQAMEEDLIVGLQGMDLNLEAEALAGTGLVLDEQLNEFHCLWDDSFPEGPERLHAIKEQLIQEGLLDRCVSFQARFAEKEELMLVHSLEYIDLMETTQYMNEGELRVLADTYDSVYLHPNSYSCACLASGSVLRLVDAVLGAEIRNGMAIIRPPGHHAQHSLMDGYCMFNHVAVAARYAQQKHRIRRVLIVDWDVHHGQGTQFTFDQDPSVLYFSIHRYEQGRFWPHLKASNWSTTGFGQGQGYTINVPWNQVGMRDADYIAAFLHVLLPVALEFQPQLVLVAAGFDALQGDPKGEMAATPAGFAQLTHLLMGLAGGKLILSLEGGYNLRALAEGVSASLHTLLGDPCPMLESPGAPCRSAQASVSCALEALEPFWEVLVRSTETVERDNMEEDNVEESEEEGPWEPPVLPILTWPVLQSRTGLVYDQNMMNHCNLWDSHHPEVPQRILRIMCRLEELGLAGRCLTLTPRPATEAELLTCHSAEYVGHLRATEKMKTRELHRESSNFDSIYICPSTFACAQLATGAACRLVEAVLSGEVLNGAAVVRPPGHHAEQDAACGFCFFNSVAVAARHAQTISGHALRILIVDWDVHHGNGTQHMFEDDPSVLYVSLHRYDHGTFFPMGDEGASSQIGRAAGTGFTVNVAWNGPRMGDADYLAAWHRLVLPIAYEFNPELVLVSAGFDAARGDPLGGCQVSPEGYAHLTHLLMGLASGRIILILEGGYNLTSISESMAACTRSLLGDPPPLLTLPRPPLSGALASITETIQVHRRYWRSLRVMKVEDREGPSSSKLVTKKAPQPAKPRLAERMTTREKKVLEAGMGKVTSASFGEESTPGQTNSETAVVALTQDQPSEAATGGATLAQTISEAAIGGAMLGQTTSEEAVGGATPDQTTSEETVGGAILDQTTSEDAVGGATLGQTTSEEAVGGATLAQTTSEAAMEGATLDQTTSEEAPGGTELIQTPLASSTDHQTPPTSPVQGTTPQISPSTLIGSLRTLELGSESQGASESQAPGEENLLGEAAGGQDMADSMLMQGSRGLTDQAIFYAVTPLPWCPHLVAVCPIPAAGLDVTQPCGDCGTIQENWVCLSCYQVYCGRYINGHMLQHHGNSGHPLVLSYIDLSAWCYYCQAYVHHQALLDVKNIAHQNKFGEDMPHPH

Histone deacetylase 8 = molecular target: T3, Histone deacetylase 8 (Homo sapiens, UniProt Q9BY41); experiment: Inhibition of human HDAC8 using RHK(Ac)K(Ac) as substrate by fluorimetric analysis
T3 sequence (Q9BY41 whole entry): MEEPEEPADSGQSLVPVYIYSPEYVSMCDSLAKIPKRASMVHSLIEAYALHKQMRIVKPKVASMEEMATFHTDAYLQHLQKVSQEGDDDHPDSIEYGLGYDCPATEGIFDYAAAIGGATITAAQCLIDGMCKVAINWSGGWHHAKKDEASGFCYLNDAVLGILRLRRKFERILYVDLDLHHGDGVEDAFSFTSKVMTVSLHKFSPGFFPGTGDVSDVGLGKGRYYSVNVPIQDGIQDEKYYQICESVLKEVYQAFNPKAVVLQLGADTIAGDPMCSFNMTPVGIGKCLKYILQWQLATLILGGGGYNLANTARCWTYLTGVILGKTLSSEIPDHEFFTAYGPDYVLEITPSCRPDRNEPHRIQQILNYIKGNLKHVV

[7] = molecular target: T4, Polyamine deacetylase HDAC10 (Homo sapiens, UniProt Q969S8); experiment: Inhibition of human HDAC10 using RHKK(Ac) as substrate by fluorimetric analysis
T4 sequence (Q969S8 whole entry): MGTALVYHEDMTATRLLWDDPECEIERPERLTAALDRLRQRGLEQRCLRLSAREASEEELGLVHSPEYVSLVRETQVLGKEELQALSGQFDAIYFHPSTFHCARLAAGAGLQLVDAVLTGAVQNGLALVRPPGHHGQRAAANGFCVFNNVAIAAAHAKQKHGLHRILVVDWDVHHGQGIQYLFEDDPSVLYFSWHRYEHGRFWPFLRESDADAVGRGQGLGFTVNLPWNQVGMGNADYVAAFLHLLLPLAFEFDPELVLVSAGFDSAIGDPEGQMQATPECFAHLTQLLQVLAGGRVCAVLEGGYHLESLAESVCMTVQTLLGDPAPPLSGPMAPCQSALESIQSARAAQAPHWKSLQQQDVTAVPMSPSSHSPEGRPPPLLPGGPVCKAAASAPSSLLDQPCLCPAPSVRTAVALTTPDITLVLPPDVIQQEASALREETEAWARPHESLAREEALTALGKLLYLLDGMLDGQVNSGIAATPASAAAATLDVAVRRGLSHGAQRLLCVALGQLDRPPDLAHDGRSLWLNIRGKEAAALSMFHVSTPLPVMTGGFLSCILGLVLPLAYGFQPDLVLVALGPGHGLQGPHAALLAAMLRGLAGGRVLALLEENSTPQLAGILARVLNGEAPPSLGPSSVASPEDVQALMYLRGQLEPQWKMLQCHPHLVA

NCI-H460 = experiment: Cytotoxicity against human NCI-H460 cells; format: functional, cell-based
Histone deacetylase 2 = Histone deacetylase 2 (Homo sapiens, UniProt Q92769); experiment: Inhibition of human HDAC2 using RHKK(Ac) as substrate by fluorimetric analysis
Plasmodium falciparum [8] = experiment: Antiprotozoan activity against Plasmodium falciparum infected in mouse assessed as mouse survival at 50 mg/kg, ip QD for 4 days; format: functional; details: route intraperitoneal
[9] = Leishmania donovani, MHOM- ET-67/L82, read-out: IC50

Histone deacetylase 1, sequence (Q13547 whole entry): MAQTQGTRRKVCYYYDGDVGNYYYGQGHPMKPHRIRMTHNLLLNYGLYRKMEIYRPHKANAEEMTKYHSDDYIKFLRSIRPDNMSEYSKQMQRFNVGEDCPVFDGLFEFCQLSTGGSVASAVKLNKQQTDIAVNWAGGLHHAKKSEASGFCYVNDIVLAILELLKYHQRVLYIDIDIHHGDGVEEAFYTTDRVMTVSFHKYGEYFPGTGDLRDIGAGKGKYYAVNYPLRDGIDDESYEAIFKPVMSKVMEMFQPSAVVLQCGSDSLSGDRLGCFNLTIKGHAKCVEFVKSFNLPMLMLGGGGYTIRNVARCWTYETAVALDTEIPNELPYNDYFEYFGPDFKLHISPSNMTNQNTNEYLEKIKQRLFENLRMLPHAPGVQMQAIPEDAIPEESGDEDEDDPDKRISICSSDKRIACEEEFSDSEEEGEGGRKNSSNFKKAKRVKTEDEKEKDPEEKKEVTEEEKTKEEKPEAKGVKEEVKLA
Histone deacetylase 3, sequence (O15379 whole entry): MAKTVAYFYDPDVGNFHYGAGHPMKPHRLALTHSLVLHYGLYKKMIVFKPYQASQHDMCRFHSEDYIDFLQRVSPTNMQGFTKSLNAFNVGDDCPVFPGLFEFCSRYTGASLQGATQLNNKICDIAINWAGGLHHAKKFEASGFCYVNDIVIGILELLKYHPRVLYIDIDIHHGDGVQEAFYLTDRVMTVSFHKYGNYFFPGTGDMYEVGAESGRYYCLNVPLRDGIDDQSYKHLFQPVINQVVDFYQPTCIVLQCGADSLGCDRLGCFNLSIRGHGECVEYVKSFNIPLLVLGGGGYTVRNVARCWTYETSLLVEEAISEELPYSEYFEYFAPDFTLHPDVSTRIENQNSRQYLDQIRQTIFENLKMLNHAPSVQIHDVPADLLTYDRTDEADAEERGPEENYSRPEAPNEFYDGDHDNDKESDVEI
Histone deacetylase 2, sequence (Q92769 whole entry): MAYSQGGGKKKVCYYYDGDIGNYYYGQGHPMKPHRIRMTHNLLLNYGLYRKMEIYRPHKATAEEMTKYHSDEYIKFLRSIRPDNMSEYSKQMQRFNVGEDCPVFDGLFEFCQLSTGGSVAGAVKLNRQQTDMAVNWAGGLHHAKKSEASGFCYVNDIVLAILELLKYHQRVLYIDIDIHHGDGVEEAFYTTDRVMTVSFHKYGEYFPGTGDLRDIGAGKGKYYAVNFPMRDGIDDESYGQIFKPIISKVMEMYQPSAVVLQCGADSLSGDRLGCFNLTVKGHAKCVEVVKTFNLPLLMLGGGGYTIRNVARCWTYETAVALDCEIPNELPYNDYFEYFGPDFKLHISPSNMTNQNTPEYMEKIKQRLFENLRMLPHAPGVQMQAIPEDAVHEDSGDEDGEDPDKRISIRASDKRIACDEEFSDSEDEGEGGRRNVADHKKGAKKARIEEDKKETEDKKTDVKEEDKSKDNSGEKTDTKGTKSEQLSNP

Compound	IC50 (Trypanosoma cruzi)	inhibition in vivo at 50 mg/kg (Plasmodium falciparum [1])	IC50 (L6)	IC50 [2]	IC50 (Giardia intestinalis)	IC50 (Plasmodium falciparum [3])	also measured
Cc1cccc(NC(=O)[C@H](CCCCCC(=O)NO)NC(=O)[C@H]2CCC(=O)N2)c1	0.849 µM	33.8%	1.23 µM	5.51 µM	4.64 µM	0.006 µM	IC50 (Histone deacetylase 11): 0.015 µM
CCCCCCCCCCCCCCCCOP(=O)([O-])OCC[N+](C)(C)C [MILTEFOSINE]	–	–	–	–	–	–	IC50 (Leishmania donovani [4]; [9]): 3.15 µM
O=C(CCCCCCC(=O)Nc1ccccc1)NO [VORINOSTAT]	10.1 µM	–	–	–	–	0.025 µM	Activity (Leishmania donovani [5]): inactive
O=C1CC[C@H](C(=O)N[C@@H](CCCCCS)C(=O)Nc2cccc(C(F)(F)F)c2)N1	19.1 µM	–	2.67 µM	4.75 µM	64.8 µM	3.26 µM	IC50 (Leishmania donovani [4]; [9]): > 3 µM
O=C(Cn1ccnc1[N+](=O)[O-])NCc1ccccc1 [BENZNIDAZOLE]	2.13 µM	–	–	–	–	–	–
C[C@H]1[C@@H](O)O[C@@H]2O[C@@]3(C)CC[C@H]4[C@H](C)CC[C@@H]1[C@@]24OO3 [ARTENIMOL]	–	99.8%	–	–	–	–	–
O=C(CCCCC[C@H](NC(=O)[C@@H]1CCC(=O)N1)C(=O)Nc1ccccc1)NO ([pGlu]-[Asu](NHOH)-NHPh)	48.4 µM	87.5%	75.1 µM	19.9 µM	10.7 µM	0.019 µM	IC50 (Histone deacetylase 1): 0.034 µM; IC50 (Histone deacetylase 3): 0.062 µM; IC50 [6]: 0.003 µM; IC50 (Histone deacetylase 11): 0.013 µM; IC50 (Histone deacetylase 8): 0.093 µM; IC50 [7]: 0.113 µM; IC50 (NCI-H460): 2.2 µM; IC50 (Histone deacetylase 2): 0.089 µM
CC(=O)SCCCCC[C@H](NC(=O)[C@H]1CCC(=O)N1)C(=O)Nc1cccc(C(F)(F)F)c1	3.98 µM	–	0.091 µM	2.38 µM	40.9 µM	3.24 µM	Activity (Leishmania donovani [5]): inactive; IC50 (Leishmania donovani [4]): Not Active
O=C1CC[C@H](C(=O)N[C@@H](CCCCCS)C(=O)Nc2ccccc2)N1	25.8 µM	–	5.25 µM	3.23 µM	12.3 µM	9.66 µM	IC50 (Histone deacetylase 1): 0.013 µM; IC50 (Histone deacetylase 3): 0.005 µM; IC50 [6]: 0.003 µM; IC50 (Histone deacetylase 11): 0.014 µM; IC50 (Histone deacetylase 8): 0.281 µM; IC50 [7]: 0.011 µM; IC50 (Histone deacetylase 2): 0.078 µM; IC50 (Leishmania donovani [4]; [9]): > 10 µM
COc1cc([C@@H]2c3cc4c(cc3[C@H](O)[C@H]3COC(=O)[C@H]23)OCO4)cc(OC)c1OC [PODOFILOX]	–	–	0.019 µM	–	–	–	–
Cc1ncc([N+](=O)[O-])n1CCO [METRONIDAZOLE]	–	–	–	–	0.58 µM	–	–
C[C@@H]1CC[C@H]2[C@@H](C)C(=O)O[C@@H]3O[C@@]4(C)CC[C@@H]1[C@]32OO4 [ARTEMISININ]	–	99.9%	–	–	–	–	Survival (Plasmodium falciparum [8]): >30 days
CC(=O)SCCCCC[C@H](NC(=O)[C@H]1CCC(=O)N1)C(=O)Nc1ccccc1	2.1 µM	–	0.189 µM	2.51 µM	8.11 µM	6.57 µM	Activity (Leishmania donovani [5]): inactive; IC50 (NCI-H460): 0.066 µM; IC50 (Leishmania donovani [4]): Not Active
O=C(CCCCC[C@H](NC(=O)[C@@H]1CC(=O)N1)C(=O)Nc1ccccc1)NO	33 µM	–	7.46 µM	6.04 µM	12.8 µM	0.023 µM	IC50 (Histone deacetylase 1): 0.059 µM; IC50 (Histone deacetylase 3): 0.088 µM; IC50 [6]: 0.006 µM; IC50 (Histone deacetylase 11): 0.037 µM; IC50 (Histone deacetylase 8): 0.137 µM; IC50 [7]: 0.125 µM; IC50 (NCI-H460): 5.4 µM; IC50 (Histone deacetylase 2): 0.143 µM
O=C(CCCCC[C@H](NC(=O)[C@H]1CCC(=O)N1)C(=O)Nc1cccc(C(F)(F)F)c1)NO	0.972 µM	63.2%	0.638 µM	4.16 µM	4.27 µM	0.003 µM	–
